# Reference: patent EP1201237A1, “Composition comprising an amide or a dialkylsulphoxide derivative for the treatment of cancer” (Virodene Pharmaceutical Holdings (PTY) Ltd., priority 2000, dated 2002)
# Read-outs that look alike come from different tables or passages of the source.
# Assays:
# [1] = Single dose study of disposition, safety, tolerability and pharmacokinetics of virodene P058 in healthy volunteers; assay type: in vivo; settings: 7,06 g of DMF transdermally once a week for 8 hours, human subjects
# Description: A draft interim clinical safety report produced by Guy's Drug Research Unit of Kings College and St Thomas' Hospitals' Medical and Dental School is set out below.
# A single dose study of the disposition, safety, tolerability and pharmacokinetics of virodene P058 in healthy volunteers.
# • ° 5 subjects dosed on day 1 (subjects 001 - 005) • ° 5 subjects dosed on day 14 (subjects 006 - 010) • ° No withdrawals • ° Final follow up for subjects 001 - 005 occurred on day 15 • ° Final follow up for subjects 006 - 010 due on day 28 Table 1.1 -
# The first patch was applied at 10h00 on day 1 for subjects 001 - 005 and at 09h20 on […] for subjects 006 - 010 with 10 minute intervals between dosing.
# • ° Laboratory Safety Values: No clinically significant changes observed for biochemistry, liver function tests, haematology or coagulation parameters. • ° Vital Signs - There were no obvious clinically significant changes observed • ° Continuous lead [I monitoring - No clinically significant changes observed] • ° 12 kead ECG - No clinically significant changes observed • ° Adverse events are reported in Table 1.2
# [2] = test system: metastasised fourth stage breast cancer; assay: Example 1: skin patch treatment of a breast cancer patient; assay type: in vivo, human
# Description: The patient was a person suffering from metastasised fourth stage breast cancer. The primary cancer was in the left breast and had spread to the right breast. The patient had auxiliary left and right swollen lymph glands under both arms, swelling of lymph glands under the chin and a secondary tumour near the crown of the head protruding from the skull which was four fingertips across. The patient was dehydrated and unable to keep down food or water.
# A skin patch was applied to the skin adjacent the tumour for six hours. […] The gel served to prevent leakage of liquid DMF from the patches.
# Each patch was applied for a period of 6 hours, on alternate days for one week followed by a one week break.
# [3] = DMF level in the patient's blood during patch treatment; assay type: in vivo, human; settings: patches of about 7,064 g DMF
# Protocol: For a patient weighing about 60 kg, an amount of about 14 g over a period of 12 hours is required to produce a level of 100 ppm. […] Absorption capability varies from patient to patient depending on factors such as skin-type and skin thickness.
# Daily full clinical and psychological evaluations were also conducted.
# Mama Carcinoma = assay: Example 2: skin patch treatment of a patient with Mama Carcinoma; assay type: in vivo, human; settings: three weekly treatments, 7.04g patches for 4 hours
# Karposi Sarcoma = assay: Example 3: skin patch treatment of an AIDS patient with Karposi Sarcoma; assay type: in vivo, human
# Description: A third patient was a person suffering from full blown AIDS. The patient had seven tumours which were diagnosed as Karposi Sarcoma.
# non-Hodgkins Lymphoma = assay: Example 4: skin patch treatment of a patient with non-Hodgkins Lymphoma; assay type: in vivo, human
# Description: A fourth patient was an adult diagnosed with non-Hodgkins Lymphoma. The patient had not been on chemotherapy and was HIV positive.
# DNA sequences = assay: In-vitro studies in cell cultures: effect on DNA; assay type: cell-based
# Description: (§1) Instead of a piling pattern, mono layers of cells in regular parallel orientation formed that were typical of non-malignant fibroblasts. […] Focal Adhesion Kinase (FAK) is activated in response to receptor activation at focal adhesion sites. FAK is a substrate for the oncogenic forms of the src-family of tyrosine kinases. The action of polar agents on oncogenic expression is believed to be the induction of cancer cells to become more benign. It would seem reasonable that to convert a malignant cell to a benign phenotype, there should be some modulation of gene expression causing malignancy in the first place. In the HL-60 human promyelocytic leukemia cells, dimethylsulfoxide (DMSO) reduced the expression of c-myc oncogenes by 80 to 90%. Some brain tumours are regulated by glial-binding growth factors such as Epidermal Growth Factor (EGF) and Platelet Derived Growth Factor (PDGF) both of which are related to oncogenes. The PDGF β-chain gene is the cellular homologue and proto-oncogene of the viral […] oncogene. Cell maturation induced by polar agents (N-MF) as single agents is most likely to be effective in Neuroblastoma and Glioblastoma (as well as leukemia and melanoma). Polar agents easily penetrate the blood brain barrier and sensitize tumour cells to both X-radiation and cis-platinum. […]
# myc onco-proteins = assay: In-vitro studies in cell cultures: myc expression; assay type: cell-based
# Description: as §1
# [4] = test system: virus transformed mice kidney cell-lines; assay: Growth pattern of virus transformed kidney cell-lines; assay type: cell-based; settings: growth medium supplemented by 0.5% DMF
# Description: as §1
# [5] = test system: HOC-7 ovarian adenocarcinoma cells; assay: Immunocytochemistry of HOC-7 cells; assay type: cell-based, human
# Description: (§2) (HOC-7) to a malignant cell. This was also found in human colon carcinoma. (Factor - beta 1 is growth factor, that can be up regulated or transformed in human cells.)
# (§3) Exposure of HOC-7 ovarian adenocarcinoma cells to regulators of cell differentiation caused inducer-dependent alterations of the antigenic pattern of the cells. […] Stimulation of fibronectin was also seen after addition of transforming growth factor (TGF) - beta 1. […] CA 125, Fibronectin, and desmoplakins I and II. TGF - beta 1 stimulated fibronectin and desmoplakins I and II only.
# [6] = test system: HOC-7 ovarian adenocarcinoma cells; assay: ELISA of antigen expression in HOC-7 cells; assay type: cell-based, human
# Description: as §2, §3
# HOC-7 cells = assay: Immunophenotype and growth of HOC-7 cells; assay type: cell-based, human
# Description: Production of EGF and TGF - alpha was not affected by these inducers. Immunocytochemistry. […] The expression of myconcoproteins was inversely related to cell proliferation CA 125, however, seems to be unrelated to cell growth.
# [7] = test system: chemistry transformed fibroblasts; assay: Phenotype of chemically transformed fibroblasts; assay type: cell-based
# EGF-transfected cells = assay: Properties of EGF-transfected FR3T3 fibroblasts; assay type: cell-based
# ras-transfected cells = assay: Properties of ras-transfected FR3T3 fibroblasts; assay type: cell-based
# Description: (§4) The high proliferation rate of the ras-3 cells was associated with elevated expression of protein B23. The 19-3 cells. But not the ras-3 cells, expressed cell surface fibronectin.
# FR3T3 fibroblasts = assay: EGF binding and EGF secretion in transfected FR3T3 lines and control cells; assay type: cell-based
# Description: as §4
# Tyrosine Kinase = Tyrosine Kinase Assay kit (non-radioactive # 1534505, Boehringer Mannheim); assay type: biochemical; settings: values only in Appendix images
# Description: The results are set out in the Appendix below. [formula] [formula]
# [8] = Toxicity of DMF by route of administration; assay type: in vivo; settings: subcutaneous versus oral
# [9] = in vivo; cited from earlier work
# [10] = several 90-day studies; cited from earlier work
# [11] = oral study; cited from earlier work
# [12] = inhalation study with rabbits; cited from earlier work
# c-myc oncogenes = assay: c-myc expression in HL-60 cells; assay type: cell-based; settings: HL-60 human promyelocytic leukemia cells
# Description: as §1
structure (smiles),measurement,setting,value
"CN(C)C=O [DMF, dimethylformamide]",liver enzymes,[1],does not result in raised liver enzymes
same,serious adverse events,[1],no serious adverse events
same,toxicity,[1],non-toxic
same,temperature of the tumour,[2]; during patch treatment,dropped to normal
same,tumour reduced in size,"[2]; patches 6 hours on alternate days for one week, then one week break",1 - 2 mm per week
same,patient's appetite,[2]; three days after the treatment began,appetite returned
same,tumour diameter,"[2]; two days after first 6 hour patch, 32 cm before treatment","29,5 cm"
same,tumour circumference,"[2]; two days after first 6 hour patch, 52 cm before treatment",51 cm
same,DMF blood level obtained,[3]; after loss by evaporation,100 ppm
same,DMF blood level delivered in theory,[3]; theoretical,125 - 135 ppm
same,bleeding,Mama Carcinoma,bleeding disappeared
same,pain,Mama Carcinoma,less pain
same,tumour shrunk in diameter,"Mama Carcinoma; 3 weeks, 53 cm before treatment",7 cm
same,recurrence of tumours,Karposi Sarcoma; after 18 months,no tumours had recurred
same,tumours,Karposi Sarcoma; after six treatments,disappeared
same,tumours,"Karposi Sarcoma; after two weekly treatments, 7.04g patches for 8 hours, seven tumours",faded
same,cancer,"non-Hodgkins Lymphoma; after eight treatments, 7.04g patches for 8 hours, 8 weeks",disappeared
same,recurrence of cancer,non-Hodgkins Lymphoma; eight months later,had not recurred
same,effect on DNA sequences,DNA sequences,conformational changes and hypomethylation
same,expression of myc onco-proteins,myc onco-proteins,inhibited
same,"random piling, non-contact-inhibited growth pattern",[4],marked alteration
same,cytoplasmic and surface labeling for CA 125 and disposition of fibronectin into the extracellular matrix,[5],stimulated
same,membrane staining for epidermal growth factor (EGF) receptor and for desmoplakins I and II,[5],elevated
same,"expression of EGF - receptor, CA 125, Fibronectin, and desmoplakins I and II",[6],dose dependently induced
same,cell growth,HOC-7 cells; HOC-7 cells,growth inhibition
same,effectiveness in changing the immunophenotype of HOC-7 cells,HOC-7 cells; compared with TGF-beta 1,more effective
same,phenotype of transformed fibroblasts,[7],restoration of a nontransformed phenotype
same,anchorage-independent growth,EGF-transfected cells,inhibition
same,normal cellular morphology and growth rate in monolayer culture,EGF-transfected cells,restoration
same,proliferation-associated nucleolar protein B23,EGF-transfected cells,down-regulation
same,fibronectin expression,ras-transfected cells; ras-3 cells,did not restore
same,growth in monolayer culture or under anchorage-independent growth conditions,"ras-transfected cells; ras-transfected cells, compared with EGF-transfected cells",much slighter effect
same,secretion of EGF,FR3T3 fibroblasts; 2 transfected lines as well as control cells,increased
same,EGF binding,FR3T3 fibroblasts; transfected cell lines,in neither case did DMF alter
same,effect of DMF on PTK,Tyrosine Kinase,Tyrosine Kinase inhibitor
same,"toxicity, subcutaneously as compared with oral administration",[8],5 - 10 times lower
same,"acute dermal, oral and inhalation toxicity",[9],low
same,NOAEL (No-Adverse-observed-Effect-Level),[10],could not be established
same,NOAEL for developmental effects,[11],44 mg/kg body weight
same,NOAEL for developmental effects,[12],150 mg/m^3
"C[S+](C)[O-] [DMSO, dimethylsulfoxide]",reduced expression of c-myc oncogenes,c-myc oncogenes,80 to 90%
